According to paper PMC12328261, “Modulating Antimicrobial Activity and Structure of the Peptide Esc(1‐21) via Site‐Specific Isopeptide Bond Formation” (Journal of Peptide Science, 2025):
*1 amine or outer side, *2 acyl side, *3 side chain or, on linkers, in order; H or OH if unused. Where a SMILES comes first, the peptide text is derived from it. Bridges are numbered along the chain shown (N, C = ends). Roman numbers before positions name the chains, in order. Where no end group is shown, it is not given here. Side-chain parts run from the residue outwards. [ ]: non-standard residue; d: D form. εLys = N[C@@H](CCCCN[*:1])C(=O)[*:2]

How the values were obtained:
[1] = system: S. epidermidis ATCC 12228; assay type: cell-based, Staphylococcus epidermidis
Protocol: (§1) The antimicrobial activity of Esc(1‐21) analogs was assessed by determining the minimal inhibitory concentration (MIC) against a panel of representative Gram‐negative and Gram‐positive bacteria. […] The bacteria were then diluted in Mueller‐Hinton (MH) broth at a concentration of 2 × 10^6 colony‐forming units (CFU)/mL. Aliquots (50 μL) were added to 50 μL of MH containing serial two‐fold dilutions of the peptides, which had been previously prepared in the wells of a 96‐well plate, achieving a final cell concentration of 10^6 CFU/mL. […] To evaluate the antibiofilm activity of the tested peptides, bacteria were diluted to a cell density of 10^6 CFU/mL and aliquots of 100 μL were dispensed into the wells of a 96‐multiwell plate and incubated for 20 h at 37°C to allow biofilm formation. Planktonic cells were then removed, and each well was washed twice with 150 μL of phosphate buffered saline (PBS). Each well was filled with PBS supplemented with different 2‐fold serial dilutions of the tested peptides and the plate was incubated for 2 h at 37°C. After two washes with PBS, biofilm viability was assessed by adding 150 μL of MTT (0.5 mg/mL). The plate was incubated for 4 h at 37°C and the reaction was then stopped by adding SDS (final concentration equal to 5% v/v). The absorbance of each well was measured at 570 nm with a microplate reader (Infinite M200; Tecan, Salzburg, Austria), and the percentage of biofilm viability was calculated with respect to the untreated samples.

E. coli ATCC 25922 = assay type: cell-based, Escherichia coli
Protocol: as §1

S. aureus ATCC 25923 = assay type: cell-based, Staphylococcus aureus
Protocol: as §1

P. aeruginosa ATCC 27853 = assay type: cell-based, Pseudomonas aeruginosa
Protocol: as §1

P. aeruginosa ATCC 15692 = assay type: cell-based, Pseudomonas aeruginosa
Protocol: as §1

RBCs = system: RBCs; set-up: method as in PMID 32722535; settings: 64 µM; cited from earlier work

Molecule | Antimicrobial activity (MIC) [1] [µM] | Antimicrobial activity (MIC) (E. coli ATCC 25922) [µM] | Antimicrobial activity (MIC) (S. aureus ATCC 25923) [µM] | Antimicrobial activity (MIC) (P. aeruginosa ATCC 27853) [µM] | Antimicrobial activity (MIC) (P. aeruginosa ATCC 15692) [µM] | Hemolysis (RBCs)
CC[C@H](C)[C@H](NC(=O)CN)C(=O)N[C@@H](Cc1ccccc1)C(=O)N[C@@H](CO)C(=O)N[C@@H](CCCCN)C(=O)N[C@@H](CC(C)C)C(=O)N[C@@H](C)C(=O)NCC(=O)N[C@@H](CCCCN)C(=O)N[C@@H](CCCCN)C(=O)N[C@H](C(=O)NCCCC[C@H](N)C(=O)N[C@@H](CC(N)=O)C(=O)N[C@@H](CC(C)C)C(=O)N[C@@H](CC(C)C)C(=O)N[C@H](C(=O)N[C@@H](CO)C(=O)NCC(=O)N[C@@H](CC(C)C)C(=O)N[C@@H](CCCCN)C(=O)NCC(N)=O)[C@@H](C)CC)[C@@H](C)CC [Esc(1‐21)ε12] (H-GIFSKLAGKKI[εLys]NLLISGLKG-NH2) | > 50 | 25 | > 50 | 25 | 25 | –
CC[C@H](C)[C@H](NC(=O)CN)C(=O)N[C@@H](Cc1ccccc1)C(=O)N[C@@H](CO)C(=O)N[C@@H](CCCCN)C(=O)N[C@@H](CC(C)C)C(=O)N[C@@H](C)C(=O)NCC(=O)NCCCC[C@H](N)C(=O)N[C@@H](CCCCN)C(=O)N[C@H](C(=O)N[C@@H](CCCCN)C(=O)N[C@@H](CC(N)=O)C(=O)N[C@@H](CC(C)C)C(=O)N[C@@H](CC(C)C)C(=O)N[C@H](C(=O)N[C@@H](CO)C(=O)NCC(=O)N[C@@H](CC(C)C)C(=O)N[C@@H](CCCCN)C(=O)NCC(N)=O)[C@@H](C)CC)[C@@H](C)CC [Esc(1‐21)ε9] (I: H-KKIKNLLISGLKG-NH2 / II: H-GIFSKLAG; amide I:1-II:C) | 12.5 | 3.12 | > 50 | 6.25 | 6.25 | –
CC[C@H](C)[C@H](NC(=O)CN)C(=O)N[C@@H](Cc1ccccc1)C(=O)N[C@@H](CO)C(=O)NCCCC[C@H](N)C(=O)N[C@@H](CC(C)C)C(=O)N[C@@H](C)C(=O)NCC(=O)N[C@@H](CCCCN)C(=O)N[C@@H](CCCCN)C(=O)N[C@H](C(=O)N[C@@H](CCCCN)C(=O)N[C@@H](CC(N)=O)C(=O)N[C@@H](CC(C)C)C(=O)N[C@@H](CC(C)C)C(=O)N[C@H](C(=O)N[C@@H](CO)C(=O)NCC(=O)N[C@@H](CC(C)C)C(=O)N[C@@H](CCCCN)C(=O)NCC(N)=O)[C@@H](C)CC)[C@@H](C)CC [Esc(1‐21)ε5] (H-K([Ser-Phe-Ile-Gly])LAGKKIKNLLISGLKG-NH2) | 25 | 3.12 | > 50 | 12.5 | 6.25 | –
CC[C@H](C)[C@H](NC(=O)CN)C(=O)N[C@@H](Cc1ccccc1)C(=O)N[C@@H](CO)C(=O)N[C@@H](CCCCN)C(=O)N[C@@H](CC(C)C)C(=O)N[C@@H](C)C(=O)NCC(=O)N[C@@H](CCCCN)C(=O)N[C@@H](CCCCN)C(=O)N[C@H](C(=O)N[C@@H](CCCCN)C(=O)N[C@@H](CC(N)=O)C(=O)N[C@@H](CC(C)C)C(=O)N[C@@H](CC(C)C)C(=O)N[C@H](C(=O)N[C@@H](CO)C(=O)NCC(=O)N[C@@H](CC(C)C)C(=O)NCCCC[C@H](N)C(=O)NCC(N)=O)[C@@H](C)CC)[C@@H](C)CC [Esc(1‐21)ε20] (H-GIFSKLAGKKIKNLLISGL[εLys]G-NH2) | 3.12 | 1.56 | > 50 | 1.56 | 1.56 | –
CC[C@H](C)[C@H](NC(=O)CN)C(=O)N[C@@H](Cc1ccccc1)C(=O)N[C@@H](CO)C(=O)N[C@@H](CCCCN)C(=O)N[C@@H](CC(C)C)C(=O)N[C@@H](C)C(=O)NCC(=O)N[C@@H](CCCCN)C(=O)NCCCC[C@H](N)C(=O)N[C@H](C(=O)N[C@@H](CCCCN)C(=O)N[C@@H](CC(N)=O)C(=O)N[C@@H](CC(C)C)C(=O)N[C@@H](CC(C)C)C(=O)N[C@H](C(=O)N[C@@H](CO)C(=O)NCC(=O)N[C@@H](CC(C)C)C(=O)N[C@@H](CCCCN)C(=O)NCC(N)=O)[C@@H](C)CC)[C@@H](C)CC [Esc(1‐21)ε10] (I: H-KIKNLLISGLKG-NH2 / II: H-GIFSKLAGK; amide I:1-II:C) | 25 | 6.25 | > 50 | 12.5 | 6.25 | –
GIFSKLAGKKIKNLLISGLKG-NH2 [Esc(1‐21), Esculentin‐1a(1‐21)NH2] | – | – | – | – | – | 10-15%
